How the values were obtained:
[1] = system: Lymphocyte; assay: Cytotoxicity against human lymphocytes; type: functional; details: read-out: TC50 (the source's name)
[2] = system: Human immunodeficiency virus 1; assay: Activity against HIV1 3B assessed by inhibition of p24 production in human lymphocytes; type: functional, organism-based; details: Human immunodeficiency virus 1, 3B
[3] = system: Human immunodeficiency virus; assay: Activity against HIV-112 assessed by inhibition of p24 production in human lymphocytes; type: functional, organism-based; details: Human immunodeficiency virus 1
[4] = system: Human immunodeficiency virus; assay: Activity against HIV-AB1 assessed by inhibition of p24 production in human lymphocytes; type: functional, organism-based; details: Human immunodeficiency virus 1
[5] = system: Lymphocyte; assay: Selectivity index, TC50 for human lymphocytes/EC50 for HIV1 3B; type: functional
[6] = system: Lymphocyte; assay: Selectivity index, TC50 for human lymphocytes/EC50 for HIV-112; type: functional
[7] = system: Lymphocyte; assay: Selectivity index, TC50 for human lymphocytes/EC50 for HIV-AB1; type: functional
[8] = system: Macrophage; assay: Cytotoxicity against human macrophages; type: functional; details: read-out: TC50 (the source's name)
[9] = system: Human immunodeficiency virus 1; assay: Antiviral activity against HIV1 […] in human macrophages; type: functional, organism-based
[10] = system: Macrophage; assay: Selectivity index, TC50 for human macrophages/EC50 for HIV1 […]; type: functional
[11] = system: MT4; assay: Cytotoxicity against MT4 cell line by MTT assay; type: functional; details: Homo sapiens, read-out: TC50 (the source's name)
[12] = system: Human immunodeficiency virus 1; assay: Antiviral activity against HIV1 in MT4 cell line; type: functional, organism-based; details: Human immunodeficiency virus 1, MT4
[13] = system: MT4; assay: Selectivity index, TC50 for MT4 cell line/EC50 for HIV1; type: functional
[14] = system: C8166; assay: Antiproliferative activity against C8166 cell line by MTT assay; type: functional; details: Homo sapiens, read-out: TC50 (the source's name)
[15] = system: Human immunodeficiency virus 1; assay: Antiviral activity against HIV1 in C8166 cell line; type: functional, organism-based; details: Human immunodeficiency virus 1, C8166
[16] = system: C8166; assay: Selectivity index, TC50 for C8166 cell line/EC50 for HIV1; type: functional
[17] = system: Human immunodeficiency virus 1; assay: Antiviral activity against HIV1 3B in MT4 cell line; type: functional, organism-based; details: Human immunodeficiency virus 1, 3B
[18] = system: Human immunodeficiency virus 1; assay: Antiviral activity against HIV1 Y181C mutant in MT4 cell line; type: functional, organism-based; details: Human immunodeficiency virus 1, MT4
[19] = system: Human immunodeficiency virus 1; assay: Antiviral activity against HIV1 K103N-Y181C mutant in MT4 cell line; type: functional, organism-based; details: Human immunodeficiency virus 1, MT4

SMILES | CC50 [1] | EC50 [2] | EC50 [3] | EC50 [4] | Selectivity index [5] | Selectivity index [6] | Selectivity index [7] | CC50 [8] | EC50 [9] | Selectivity index [10] | CC50 [11] | EC50 ([12]; read-out: EC50) | EC50 ([12]; read-out: Log EC50 (converted)) | Selectivity index [13] | CC50 [14] | EC50 [15] | Selectivity index [16] | EC50 [17] | EC50 [18] | EC50 [19]
CCOC(=O)NNC(=O)c1[nH]c2ccc(Cl)cc2c1S(=O)(=O)c1cc(C)cc(C)c1 | > 100000 nM | 20 nM | 30 nM | 20 nM | >5000 | >3333 | >5000 | > 100000 nM | 6 nM | >16666 | 100000 nM | 20 nM | 20 nM | 5000 | > 100000 nM | 50 nM | >2000 | 20 nM | 40 nM | 9200 nM
Cc1cc(C)cc(S(=O)(=O)c2c(C(=O)NNC(C)C)[nH]c3ccc(Cl)cc23)c1 | > 100000 nM | 8 nM | 6 nM | 8 nM | >12500 | >16666 | >12500 | > 100000 nM | 5 nM | >20000 | > 100000 nM | 0.7 nM | 0.7 nM | >142857 | > 100000 nM | 3 nM | >33333 | 0.7 nM | 40 nM | 8600 nM
CNNC(=O)c1[nH]c2ccc(Cl)cc2c1S(=O)(=O)c1cc(C)cc(C)c1 | > 100000 nM | 20 nM | 40 nM | 20 nM | >5000 | >2500 | >5000 | > 100000 nM | 30 nM | >3333 | > 100000 nM | 20 nM | 20 nM | >5000 | > 100000 nM | 30 nM | >3333 | 50 nM | 130 nM | > 20000 nM
O=C(NN1CCOC1=O)c1[nH]c2ccc(Cl)cc2c1S(=O)(=O)c1ccccc1 | > 100000 nM | 100 nM | 400 nM | 500 nM | >1000 | >250 | >200 | > 100000 nM | 60 nM | >1666 | > 100000 nM | 15 nM | 15 nM | >6666 | > 100000 nM | 20 nM | >5000 | 15 nM | 300 nM | > 20000 nM
Cc1cc(C)cc(S(=O)(=O)c2c(C(=O)NNC(=O)NN)[nH]c3ccc(Cl)cc23)c1 | > 100000 nM | 30 nM | 50 nM | 40 nM | >3333 | >2000 | >2500 | > 100000 nM | 9 nM | >11111 | > 100000 nM | 10 nM | 10 nM | >10000 | > 100000 nM | 8 nM | >12500 | 40 nM | 20 nM | 5700 nM
CC(=O)NNC(=O)c1[nH]c2ccc(Cl)cc2c1S(=O)(=O)c1cc(C)cc(C)c1 | > 100000 nM | 10 nM | 8 nM | 10 nM | >10000 | >12500 | >10000 | > 100000 nM | 8 nM | >12500 | > 100000 nM | 5 nM | 5 nM | >20000 | > 100000 nM | 7 nM | >14285 | 5 nM | 20 nM | > 20000 nM
Cc1cc(C)cc(S(=O)(=O)c2c(C(=O)NNC3CCCCC3)[nH]c3ccc(Cl)cc23)c1 | > 100000 nM | 800 nM | 1000 nM | 900 nM | >125 | >100 | >111 | > 100000 nM | 200 nM | >500 | > 100000 nM | 50 nM | 50 nM | >2000 | > 100000 nM | 80 nM | >1250 | 100 nM | 1200 nM | > 20000 nM

Reference: ChEMBL document CHEMBL1147813, “Design, molecular modeling, synthesis, and anti-HIV-1 activity of new indolyl aryl sulfones. Novel derivatives of the indole-2-carboxamide” (J Med Chem, 2006)
